# Measured values as given in US20070202079A1, “Therapeutic compositions and methods useful in modulating protein tyrosine phosphatases” (priority 2006, published 2007).
# Legend:
# [1] = test system: Renca tumors; assay: Renca tumors in Balb/c mice; format: in vivo; settings: Balb/c mice, two weeks
# Experimental: Balb/c and athymic nude Balb/c mice (10 weeks old, female, Taconic Farms, Germantown, N.Y.) were inoculated (s.c.) at the flanks with Renca cells (10^6 cells/site). Four days post-inoculation, the mice were subject to no treatment (Control) or treatment with IL-2 ([…]/daily for 5 days, i.p.), SSG (12 mg/daily, i.m. at hip regions) or the combination of the two agents for two weeks. […] The dose of SSG was similar to the effective daily dose of the drug for the treatment of murine leishmaniasis (Murray, H. W., J. D. Berman, and S. D. Wright. 1988. Immunochemotherapy for intracellular Leishmania donovani infection: gamma interferon plus pentavalent antimony. J Infect Dis 157:973). Tumor volume was measured during the study period and calculated using the formula for a prolate spheroid (V=4/3×a2b) (Lindner, D. J., E. C. Borden, and D. V. Kalvakolanu. 1997. Synergistic antitumor effects of a combination of interferons and retinoic acid on human tumor cells in vitro and in vivo. Clin Cancer Res 3:931). Student's t test was used for assessing the significance of tumor volume differences among differential treatment groups. Mouse viability (daily) and body weights (weekly) were also recorded during the study period. At the end of the study, Renca tumors and major internal organs (heart, kidney, liver, lung and spleen) were harvested for histology and immunohistochemistry analysis.
# [2] = test system: Hey; assay: HEY cell growth, MTT; format: cell-based, human; settings: 100 μg/ml, day 6
# Experimental: NIH3T3 (Yi, et al., Blood 85, 87 (1995)), WM9 (Forsberg, et al., Proc. Nat. Acad Sci. USA 90, 393 (1993)), DU145 (Mickey, et al., Cancer Res. 37, 4049 (1977)), LoVo (Drewinko, et al., Cancer Res. 36, 467 (1976)), HEY (Buick, et al., Cancer Res. 45, 3668 (1985)), U251 (Yoshida, et al., Cancer 50, 410 (1982)), A549 (Giard, et al., J. Natl. Cancer Inst. 51, 1417 (1973)) and SK-N-SH (Helson, et al., Cancer Res. 35, 2594 (1975)) cell lines have been described and were cultured in RPMI 1640 supplemented with 10% fetal calf serum (FCS). For measurement of sodium stibogluconate effects on cell growth in vitro, cells were cultured in the absence (−) or presence (+) of various amounts of sodium stibogluconate for 6 days with viable cells quantified by MTT assays (Mosmann, J. Immunol. Methods 65, 55 (1983)). Percentages of growth inhibition by sodium stibogluconate were calculated (.+−.x%).
# [3] = standard dosage 10-20 mg/kg/day; cited from earlier work
smiles,measurement,setting,value
O.O.O.O.O.O.O.O.O.O=C([O-])[C@@H]1[O][Sb]2([O-])([O][Sb]34([OH])[O][C@H]([C@H](O)CO)[C@H]([O]3)[C@H](C(=O)[O-])[O]4)[O][C@H]([C@H](O)CO)[C@@H]1[O]2.[Na+].[Na+].[Na+] [sodium stibogluconate],tolerance of treatment,[1],tolerated well
same,cell killing of Hey,[2],near-complete cell killing
same,serum levels,[3],≥ 10000 ng/mL
